SMILES strings stand for the structures. pIC50, pKd: −log10 of the molar value. Structures can show the parent of a compound that is named as a salt.

This note sets out measurements from patent US20120129811A1, “TRICYCLIC INHIBITORS OF PRO-MATRIX METALLOPROTEINASE ACTIVATION” (priority 2010, published 2012).

The target in test [1] is T1, proMMP9(20-445;ΔFnII) (SEQ ID NO:6) (Homo sapiens, UniProt P14780, DEL216-390).
T1 construct: start methionine (N); made in house; host or cells: E. coli BL21(DE3) RIL
T1 sequence (P14780 with tags, fused parts or gaps DEL216-390): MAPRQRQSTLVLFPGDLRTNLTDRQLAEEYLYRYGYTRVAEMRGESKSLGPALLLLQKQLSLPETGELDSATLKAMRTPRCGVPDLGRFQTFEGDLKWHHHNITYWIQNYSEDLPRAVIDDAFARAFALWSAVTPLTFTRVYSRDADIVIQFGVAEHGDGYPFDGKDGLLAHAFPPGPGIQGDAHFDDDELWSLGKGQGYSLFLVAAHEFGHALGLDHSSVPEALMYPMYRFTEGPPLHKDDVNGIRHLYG
Kind of test: ThermoFluor binding assay with proMMP9(20-445;ΔFnII). In a few lines:
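Protein thermal stability was measured with 2.8 μM proMMP9(20-445;ΔFnII) and 50 μM 1,8-ANS in 50 mM HEPES pH 7.0, 100 mM NaCl, 0.001% Tween-20, 2.5 mM MgCl2, 300 μM CaCl2, across serial compound dilutions. Samples were heated 40–90° C at 1° C/min with fluorescence read at 500 nm. Tm was fitted, and binding was derived from thermodynamic parameters obtained by DSC and ThermoFluor.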
On the technique in general: In DSF a fluorescence change marks the thermal transition of the protein.

Test [2] has as its target T2, proMMP9(67-444;ΔFnII) (SEQ ID NO:5) (Homo sapiens, UniProt P14780, DEL216-390).
T2 construct: start methionine (N); made in house; host or cells: E. coli BL21(DE3) RIL
T2 sequence (P14780 with tags, fused parts or gaps DEL216-390): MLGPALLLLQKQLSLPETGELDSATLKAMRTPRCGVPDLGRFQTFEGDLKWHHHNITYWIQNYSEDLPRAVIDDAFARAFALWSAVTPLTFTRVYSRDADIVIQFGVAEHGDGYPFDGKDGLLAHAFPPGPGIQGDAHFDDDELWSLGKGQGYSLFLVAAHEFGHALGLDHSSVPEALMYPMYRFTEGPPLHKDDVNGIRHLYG
Kind of test: ThermoFluor binding assay with proMMP9(67-444;ΔFnII). In a few lines:
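Thermal shift of 3.5 μM proMMP9(67-444;ΔFnII), desalted beforehand, with 50 μM 1,8-ANS in 50 mM HEPES pH 7.0, 100 mM NaCl, 2.5 mM MgCl2, 300 μM CaCl2, 0.001% Tween-20. Heated 40–90 °C at 1 °C/min, fluorescence read at 500 nm; binding fitted from Tm shifts using DSC- and ThermoFluor-derived unfolding parameters.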

Test [3] deals with T3, proMMP13(1-268) (SEQ ID NO:7) (Homo sapiens, UniProt P45452).
T3 construct: 6xHis (C); made in house; host or cells: HEK293 (transient, secreted)
In words: ThermoFluor binding assay with proMMP13(1-268). The gist of the method:
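Thermal shift of desalted proMMP13(1-268) at 3.5 μM final, in 50 mM HEPES pH 7.0, 100 mM NaCl, 0.001% Tween-20, 2.5 mM MgCl2, 300 μM CaCl2, with 25 μM 1,8-ANS. Serially diluted compounds heated 40–90° C. at 1° C./min, fluorescence read at 500±25 nm. Tm fitted; binding modeled using DSC-derived thermodynamic parameters.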

In test [4] the target is T4, full-length proMMP9(1-707) activation by catalytic MMP3 (Homo sapiens, UniProt P14780, R574P).
T4 construct: made in house; host or cells: proMMP9: HEK293 (secreted); MMP3: E. coli
Kind of test: proMMP9/MMP3 P126 Activation Assay. Format: biochemical. As for the experimental part: proMMP9/MMP3 P126 Activation Assay
The reaction volume was 50 μL. […] Reactivity of residual MMP3 towards P-126 substrate was minimal under these conditions.

T4 sequence (P14780 20-707 R574P): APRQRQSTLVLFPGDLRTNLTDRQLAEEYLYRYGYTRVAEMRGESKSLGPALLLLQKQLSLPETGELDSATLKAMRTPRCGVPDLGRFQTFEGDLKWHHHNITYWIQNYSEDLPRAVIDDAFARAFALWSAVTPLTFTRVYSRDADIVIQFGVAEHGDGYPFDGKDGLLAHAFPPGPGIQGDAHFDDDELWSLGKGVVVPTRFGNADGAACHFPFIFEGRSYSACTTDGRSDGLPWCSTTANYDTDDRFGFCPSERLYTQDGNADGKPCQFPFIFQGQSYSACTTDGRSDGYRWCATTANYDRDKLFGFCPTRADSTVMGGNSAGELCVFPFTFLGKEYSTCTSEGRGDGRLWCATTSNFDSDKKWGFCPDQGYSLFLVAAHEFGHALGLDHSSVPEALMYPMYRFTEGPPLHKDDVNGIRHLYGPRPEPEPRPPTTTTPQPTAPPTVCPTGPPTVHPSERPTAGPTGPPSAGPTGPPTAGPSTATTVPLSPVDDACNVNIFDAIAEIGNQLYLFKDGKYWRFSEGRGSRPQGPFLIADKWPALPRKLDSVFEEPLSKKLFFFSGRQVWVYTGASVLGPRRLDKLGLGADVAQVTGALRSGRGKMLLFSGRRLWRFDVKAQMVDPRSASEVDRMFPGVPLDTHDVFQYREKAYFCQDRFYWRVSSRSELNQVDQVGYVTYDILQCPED

On to `CCc1ccccc1Nc1nc2c(ccc3c2ncn3C)s1` [Example 62, (2-Ethyl-phenyl)-(6-methyl-6H-imidazo[4′,5′:3,4]benzo[2,1-d]thiazol-2-yl)-amine.HCl], for which the results for the pKd in test [1], in test [2] and in test [3] were 5.41, 5.80 and 4.29, respectively. Further, the negative logarithm of the IC50 (pIC50) (in general, the IC50 on a negative log10 scale, so that one unit is a factor of ten) in test [4] is 5.96.

Regarding `CC(C)Oc1ccc(C(N)=O)cc1Nc1nc2c(ccc3ncccc32)s1` [Example 91, 4-Isopropoxy-3-(thiazolo[4,5-f]quinolin-2-ylamino)-benzamide.TFA], the negative logarithm of the Kd (pKd) (in general, the negative decadic logarithm of the Kd, by convention in mol/L) is 6.02 in test [1], 5.54 in test [2] and 5.05 in test [3]. In addition, the pIC50 in test [4] was 5.89.

With `Cc1nc2c(ccc3sc(Nc4cc(C(=O)O)ccc4OC(C)C)nc32)[nH]1` [Example 20, 4-Isopropoxy-3-(7-methyl-6H-imidazo[4′,5′:3,4]-benzo[2,1-d]thiazol-2-ylamino)-benzoic acid.HCl], the results for the pKd in test [1], in test [2] and in test [3] were 5.85, 6.72 and 5.72, respectively. Moreover, the pIC50 in test [4] is 6.62.

`CC(C)Oc1ccc(F)cc1Nc1nc2c(ccc3c2ncn3C)s1` [Example 59, (5-Fluoro-2-isopropoxy-phenyl)-(6-methyl-6H-imidazo[4′,5′:3,4]-benzo[2,1-d]thiazol-2-yl)-amine.HCl]: the pKd in test [1] is 5.70; in test [2], 6.17; in test [3], 5.49. For the same compound, in test [4], the negative logarithm of the IC50 (pIC50) is 6.35.

For `COc1ccc(Cl)cc1Nc1nc2c(ccc3c2ncn3C)s1` [Example 40, (5-Chloro-2-methoxy-phenyl)-(6-methyl-6H-imidazo[4′,5′:3,4]benzo[2,1-d]thiazol-2-yl)-amine.HCl], the pKd in test [1] is 6.08; in test [2], 7.00; in test [3], 5.80. The compound further had a negative logarithm of the IC50 (pIC50) in test [4] of 6.77.

`CC(C)Oc1ccc(C(N)=O)cc1Nc1nc2c(ccc3nc(C(=O)N4CCN(C)CC4)[nH]c32)s1` [Example 26, 4-Isopropoxy-3-[7-(4-methyl-piperazine-1-carbonyl)-8H imidazo[4′,5′:3,4]benzo[2,1-d]thiazol-2-ylamino]-benzamide.HCl]: the results for the negative-log Kd (pKd) in test [1], in test [2] and in test [3] were 6.07, 6.15 and 5.21, respectively. In test [4], the pIC50 is 6.15.

Regarding `CC(C)Oc1ccc(C(N)=O)cc1Nc1nc2c(s1)CCc1cnccc1-2` [Example 115, 3-(4,5-Dihydro-thiazolo[4,5-f]isoquinolin-2-ylamino)-4-isopropoxy-benzamide.TFA], the figures for the negative-log Kd (pKd) in test [1], in test [2] and in test [3] were 5.52, 4.60 and 4.85, respectively. The compound also had a pIC50 in test [4] of 5.80.

With `Cc1nc2c3nc(Nc4cc(C(N)=O)ccc4OC(C)C)sc3ccc2n1C` [Example 27, 3-(6,7-Dimethyl-6H-imidazo[4′,5′:3,4]benzo[2,1-d]thiazol-2-ylamino)-4-isopropoxy-benzamide.HCl], the negative-log Kd (pKd) is 6.89 in test [1], 7.41 in test [2] and 6.28 in test [3]. The pIC50 in test [4] is 7.24.

With `Cc1cc2ccc3sc(Nc4cc(C(N)=O)ccc4OC(C)C)nc3c2o1` [Example 38, 4-Isopropoxy-3-(7-methyl-8-oxa-3-thia-1-aza-as-indacen-2-ylamino)-benzamide.HCl], the pKd in test [1] was 6.00; in test [2], 6.02; in test [3] it was 5.85. In test [4], this compound gave a pIC50 of 5.82.

For the compound `CC(C)Oc1ccc(C(N)=O)cc1Nc1nc2c(s1)CCc1ccncc1-2` [Example 116, 3-(4,5-Dihydro-thiazolo[5,4-h]isoquinolin-2-ylamino)-4-isopropoxy-benzamide.TFA], the pKd in test [1] is 5.74; in test [2], 5.14; in test [3] it was 5.06. Moreover, the negative logarithm of the IC50 (pIC50) in test [4] was 6.01.

As to `CCn1c(C)nc2c3nc(Nc4cc(C(N)=O)ccc4OC(C)C)sc3ccc21` [Example 34, 3-(6-Ethyl-7-methyl-6H-imidazo[4′,5′:3,4]benzo[2,1-d]thiazol-2-ylamino)-4-isopropoxy-benzamide.HCl], the pKd was 6.92 in test [1], 6.85 in test [2] and 5.40 in test [3]. This compound gave a pIC50 in test [4] of 6.96.
